For orientation: IC50 means the midpoint of a concentration-inhibition curve. One may read the EC50 as the concentration at which the effect is half-maximal.

Drawing on US8871774B2, “Inhibitors of influenza viruses replication” (priority 2010, dated 2014), this text covers IC50 and EC50 for eleven compounds.

Read-outs that look alike come from different tables or passages of the source. Where only a bound is given, the exact number is not on record here.

For test [1], the system named is influenza A virus (A/PR/8/34). Nature of the test: cytopathic effect (CPE) assay, MDCK cell protection by ATP detection. The settings on record: Influenza A virus, mean IC50, MDCK cells, A/PR/8/34, 72 hours, 50% cell protection. It is filed as cell-based. (Cytopathic effects are the visible damage that an infection or toxin causes in cultured cells.)
Test [2] concerns Influenza virus, strain A/PR/8/34. In words: microbe, parasite or virus in culture. It is filed as cell-based.
The mark [3] stands for this setting: Table 1, read-out: Flu, MDCK IC50.
[4] abbreviates: unidentified influenza virus, PR/8, read-out: bDNA EC50 (uM).
Where [5] appears, read: Table 2, read-out: Flu MDCK IC50.

As to `O=C(N[C@@H]1CCC[C@H](Nc2nc(-c3n[nH]c4ncccc34)ncc2F)C1)N1CCCCC1` [Compound I-22, N-((1R,3S)-3-((5-fluoro-2-(1H-pyrazolo[3,4-b]pyridin-3-yl)pyrimidin-4-yl)amino)-cyclohexyl)piperidine-1-carboxamide], in test [1] (setting [3]), the IC50 was less than 3.3 µM. Besides, in test [2] (setting [4]), the EC50 is less than 3.3 µM.
With `O=C(O)[C@@H]1CCCC2(CCCC2)[C@@H]1Nc1nc(-c2n[nH]c3ncc(F)cc23)ncc1F` [Compound I-40, (6R,7R)-6-((5-fluoro-2-(5-fluoro-1H-pyrazolo[3,4-b]pyridin-3-yl)-pyrimidin-4-yl)amino)spiro[4.5]decane-7-carboxylic acid], in test [1] (setting [5]), the IC50 is less than 3.3 µM. Besides, in test [2] (read-out: bDNA EC50, Table 2, mean EC50, viral RNA level 50% of control wells), the EC50 was less than 3.3 µM.
Turning to `COC(=O)[C@H]1C2CCC(CC2)[C@@H]1Nc1nc(-c2n[nH]c3ncc(Cl)cc23)ncc1F` (racemic) [Compound I-2, (+/−)-trans-(2,3)-methyl 3-((2-(5-chloro-1H-pyrazolo[3,4-b]pyridin-3-yl)-5-fluoropyrimidin-4-yl)amino)bicyclo[2.2.2]octane-2-carboxylate], the IC50 in test [1] (setting [3]) was less than 3.3 µM. The EC50 in test [2] (setting [4]) is less than 3.3 µM.
As to `O=C(O)[C@H]1C2CCC(CC2)[C@@H]1Nc1nc(-c2n[nH]c3ncc(Cl)cc23)ncc1F` (racemic) [Compound I-6, (+/−) trans-(2S,3S)-3-((2-(5-chloro-1H-pyrazolo[3,4-b]pyridin-3-yl)-5-fluoropyrimidin-4-yl)amino)bicyclo[2.2.2]octane-2-carboxylic acid], in test [1] (setting [3]), the IC50 was less than 3.3 µM. For the same compound, the EC50 in test [2] (setting [4]) is less than 3.3 µM.
As to `C[C@]1(C(=O)O)CCCC[C@@H]1Nc1nc(-c2n[nH]c3ncc(Cl)cc23)ncc1F` (racemic) [Compound I-13, (+/−)-2-((2-(5-chloro-1H-pyrazolo[3,4-b]pyridin-3-yl)-5-fluoropyrimidin-4-yl)amino)-1-methylcyclohexanecarboxylic acid], the IC50 in test [1] (setting [3]) is less than 3.3 µM. The EC50 in test [2] (setting [4]) is less than 3.3 µM.
`O=C(N[C@@H]1CCC[C@H](Nc2nc(-c3n[nH]c4ncc(Cl)cc34)ncc2F)C1)N1CCOCC1` [Compound I-1, N-((1R,3S)-3-((2-(5-chloro-1H-pyrazolo[3,4-b]pyridin-3-yl)-5-fluoropyrimidin-4-yl)amino)cyclohexyl)morpholine-4-carboxamide]: the IC50 in test [1] (setting [3]) was less than 3.3 µM. Also, in test [2] (setting [4]), the 50% effective concentration (EC50) is less than 3.3 µM.
For the compound `O=C(N[C@@H]1CCC[C@H](Nc2nc(-c3n[nH]c4ncc(Cl)cc34)ncc2F)C1)N1CCCC1` [Compound I-3, N-((1R,3S)-3-((2-(5-chloro-1H-pyrazolo[3,4-b]pyridin-3-yl)-5-fluoropyrimidin-4-yl)amino)cyclohexyl)pyrrolidine-1-carboxamide], the half-inhibitory concentration (IC50) in test [1] (setting [3]) was less than 3.3 µM. Besides, the EC50 in test [2] (setting [4]) is less than 3.3 µM.
Take `O=C(N[C@@H]1CCC[C@H](Nc2nc(-c3n[nH]c4ncc(Cl)cc34)ncc2F)C1)N1CCC[C@H]1CO` [Compound I-4, (S)—N-((1R,3S)-3-((2-(5-chloro-1H-pyrazolo[3,4-b]pyridin-3-yl)-5-fluoropyrimidin-4-yl)amino)cyclohexyl)-2-(hydroxymethyl)pyrrolidine-1-carboxamide]: the IC50 in test [1] (setting [3]) was less than 3.3 µM. Besides, the EC50 in test [2] (setting [4]) is less than 3.3 µM.
Take `O=C(N[C@@H]1CCC[C@H](Nc2nc(-c3n[nH]c4ncccc34)ncc2F)C1)N1CCOCC1` [Compound I-7]: in test [1] (setting [3]), the IC50 is less than 3.3 µM. The EC50 in test [2] (setting [4]) was less than 3.3 µM.
For the compound `COC1CCN(C(=O)N[C@@H]2CCC[C@H](Nc3nc(-c4n[nH]c5ncc(Cl)cc45)ncc3F)C2)C1` (stereo partly drawn) [Compound I-5, N-((1R,3S)-3-((2-(5-chloro-1H-pyrazolo[3,4-b]pyridin-3-yl)-5-fluoropyrimidin-4-yl)amino)cyclohexyl)-3-methoxypyrrolidine-1-carboxamide], the IC50 in test [1] (setting [3]) was less than 3.3 µM. In addition, the EC50 in test [2] (setting [4]) was less than 3.3 µM.
In the case of `O=C(O)[C@H]1CCCC2(CCCC2)[C@H]1Nc1nc(-c2n[nH]c3ncc(F)cc23)ncc1F` [Compound I-39, (6S,7S)-6-((5-fluoro-2-(5-fluoro-1H-pyrazolo[3,4-b]pyridin-3-yl)pyrimidin-4-yl)amino)spiro[4.5]decane-7-carboxylic acid], the IC50 in test [1] (setting [5]) is less than 3.3 µM. The EC50 in test [2] (setting [4]) was less than 3.3 µM.
